Test results taken from US10927398B2, “Compositions for CYP450 phenotyping using saliva samples” (Concordia University, Inc., priority 2015, dated 2021).
Read-outs that look alike come from different tables or passages of the source.

Legend:
[1] = cited from earlier work
[2] = test system: plasma protein; conditions: cited from earlier work
[3] = test system: CYP450 enzymes; conditions: cited from earlier work
[4] = cited from earlier work; remark: listed apart in the source
[5] = test system: CYP2C19; conditions: in vivo
[6] = test system: CYP2D6; experiment: Saliva phenotyping with dextromethorphan probe (dextromethorphan/dextrorphan metabolic ratio); format: in vivo, human; conditions: individuals dosed with over the counter formulations
Excerpt: 3. […] Record the time in your lab notebook.
1. […] Repeat with the other three saliva samples.
4. […] Repeat with the other three saliva samples.

[7] = Table of Exemplary Drugs, CYP3A4
[8] = Table of Exemplary Drugs, CYP1A2
[9] = Table of Exemplary Drugs, CYP2D6
[10] = Table of Exemplary Drugs, CYP2C19
[11] = Table of Exemplary Drugs, CYP2C9

Row | Molecule | ORAL BIOAVAILABILITY [1, 7] | PLASMA PROTEIN BINDING [2, 7] | HALF-LIFE [4, 7] [h] | ORAL BIOAVAILABILITY [1, 9] | PLASMA PROTEIN BINDING [2, 9] | also measured
1 | CN(C)CCc1c[nH]c2ccc(CS(=O)(=O)N3CCCC3)cc12 [Almortriptan (Axert), Almortriptan] | 70% | 35% |  |  |  | METABOLISM ([3]; CYP isoforms listed, Table of Exemplary Drugs, CYP3A4): 2D6, MAO
2 | COC(=O)C1=C(C)NC(C)=C(C(=O)OCCN(C)Cc2ccccc2)C1c1cccc([N+](=O)[O-])c1 (centres unmarked) [Nicardipine (Cardene), Nicardipine] | 35% |  | 8.6 to 14.4 |  |  | METABOLISM [3]: 3A4, 2C8, 2D6
3 | Cn1c(=O)c2[nH]cnc2n(C)c1=O [Theophylline] |  |  |  |  |  | ORAL BIOAVAILABILITY [1, 8]: ~100%; METABOLISM ([3]; CYP isoforms listed, Table of Exemplary Drugs, CYP1A2): 2E1; HALF-LIFE [4, 8]: 1.5 to 9.8 h
4 | COc1ccc2nc([S+]([O-])Cc3ncc(CO)c(OC)c3C)[nH]c2c1 (centres unmarked) [5-hydroxy omeprazole] |  |  |  |  |  | concentrations in saliva [5]: found in low concentrations in saliva of some individuals
5 | COC(=O)N[C@H](C(=O)N[C@@H](Cc1ccccc1)[C@@H](O)CN(Cc1ccc(-c2ccccn2)cc1)NC(=O)[C@@H](NC(=O)OC)C(C)(C)C)C(C)(C)C [Atazanavir (Reyataz), Atazanavir] | 60-68% | 86% | 7 |  |  | 
6 | CNCC[C@@H](Oc1ccccc1C)c1ccccc1 [Atomoxetine] |  |  |  | 63% | 98% | HALF-LIFE [4, 9]: 5.2 h
7 | CCC1(c2ccccc2)C(=O)NCNC1=O [Primidone] |  |  |  |  |  | ORAL BIOAVAILABILITY [1, 10]: 90-100%; PLASMA PROTEIN BINDING [2, 10]: 20-30% ^; HALF-LIFE [4, 10]: 3.3 to 7 h
8 | COc1ccnc(C[S+]([O-])c2nc3ccc(OC(F)F)cc3[nH]2)c1OC (centres unmarked) [Pantoprazole] |  |  |  |  |  | ORAL BIOAVAILABILITY [1, 10]: 77%; PLASMA PROTEIN BINDING [2, 10]: 98%; HALF-LIFE [4, 10]: 1 h
9 | Nc1c2c(nc3ccccc13)CCCC2 [Tacrine] |  |  |  |  |  | ORAL BIOAVAILABILITY ([1]; in vivo, po): 2.4-36%; PLASMA PROTEIN BINDING ([2]; plasma): 55%; HALF-LIFE ([4]; in vivo): 2 to 4 h
10 | C[C@@H](O[C@H]1OCCN(Cc2n[nH]c(=O)[nH]2)[C@H]1c1ccc(F)cc1)c1cc(C(F)(F)F)cc(C(F)(F)F)c1 [Aprepitant (Emend), Aprepitant] | 60-65% | 95% | 9 to 13 |  |  | 
11 | CO[C@H]1C[C@@H]2CC[C@@H](C)[C@@](O)(O2)C(=O)C(=O)N2CCCC[C@H]2C(=O)O[C@H]([C@H](C)C[C@@H]2CC[C@@H](O)[C@H](OC)C2)CC(=O)[C@H](C)/C=C(\C)[C@@H](O)[C@@H](OC)C(=O)[C@H](C)C[C@H](C)/C=C/C=C/C=C/1C [Sirolimus (Rapamune), Sirolimus] | 14-27% | 92% | 61.3 to 72.3 |  |  | 
12 | CCCCC1=NC2(CCCC2)C(=O)N1Cc1ccc(-c2ccccc2-c2nnn[nH]2)cc1 [Irbesartan] |  |  |  |  |  | ORAL BIOAVAILABILITY [1, 11]: 60-80%; PLASMA PROTEIN BINDING [2, 11]: 90%; HALF-LIFE [4, 11]: 11 to 15 h
13 | CN(C)CCC=C1c2ccccc2CCc2ccccc21 [Amitriptyline] |  |  |  | ~43-46% | >90% | ORAL BIOAVAILABILITY [1, 8]: ~43-46%; ORAL BIOAVAILABILITY [1, 11]: 30-60%; ORAL BIOAVAILABILITY [1, 10]: 30-60%; PLASMA PROTEIN BINDING [2, 8]: >90%; PLASMA PROTEIN BINDING [2, 11]: >90%; PLASMA PROTEIN BINDING [2, 10]: >90%; HALF-LIFE [4, 8]: ~13 to 36 h; HALF-LIFE [4, 11]: 15 h; HALF-LIFE [4, 10]: 15 h; HALF-LIFE [4, 9]: ~13 to 36 h
14 | C[C@]12CC[C@@H]3c4ccc(O)cc4CC[C@H]3[C@@H]1CC[C@@H]2O [Estradiol] |  |  |  |  |  | ORAL BIOAVAILABILITY [1, 8]: 43%; PLASMA PROTEIN BINDING [2, 8]: >95%; HALF-LIFE [4, 8]: 36 h
15 | O=C(C1CCCCC1)N1CC(=O)N2CCc3ccccc3C2C1 (centres unmarked) [Praziquantel (Biltricide), Praziquantel] | 80% | 80% | 0.8 to 3 |  |  | 
16 | COc1ccccc1OCCNCC(O)COc1cccc2[nH]c3ccccc3c12 (centres unmarked) [Carvedilol] |  |  |  | 25-35% | 95-98% ^ | HALF-LIFE [4, 9]: 6 to 10 h
17 | C#C[C@]1(O)CC[C@H]2[C@@H]3CCc4cc(O)ccc4[C@H]3CC[C@@]21C [Ethinyl Estradiol] | 38-48% | 97-98% ^ | 7 to 36 |  |  | 
18 | O=C1Nc2ccc(Cl)cc2[C@@](C#CC2CC2)(C(F)(F)F)O1 [Efavir enz (Sustiva), Efavir enz] | 40-45% | 99.5-99.75% ^ | 40 to 55 |  |  | 
19 | CC#C[C@]1(O)CC[C@H]2[C@@H]3CCC4=CC(=O)CCC4=C3[C@@H](c3ccc(N(C)C)cc3)C[C@@]21C [Mifepristone (Mifeprex), Mifepristone] | 69% | 99.2%^ | 20 to 85 |  |  | 
20 | CCS(=O)(=O)CCn1c([N+](=O)[O-])cnc1C [Tinidazole (Tindamax), Tinidazole] | 100% | 12% | 11.1 to 14.7 |  |  | 

Row | Molecule | ORAL BIOAVAILABILITY [1, 7] | PLASMA PROTEIN BINDING [2, 7] | HALF-LIFE [4, 7] [h] | ORAL BIOAVAILABILITY [1, 9] | PLASMA PROTEIN BINDING [2, 9] | also measured
21 | CN1CCN(C(=O)OC2c3nccnc3C(=O)N2c2ccc(Cl)cn2)CC1 (centres unmarked) [Zopiclone (Imovane), Zopiclone] | 80% | 45% | 3.5 to 6.5 |  |  | 
22 | O=C(CCCN1CCC(O)(c2ccc(Cl)cc2)CC1)c1ccc(F)cc1 [Haloperidol] |  |  |  | 60% | 88.4-92.5% ^ | ORAL BIOAVAILABILITY [1, 8]: 60%; PLASMA PROTEIN BINDING [2, 8]: 88.4-92.5% ^; HALF-LIFE [4, 8]: 14 to 37 h; HALF-LIFE [4, 9]: 14 to 37 h
23 | CCC1(c2ccccc2)C(=O)NC(=O)N(C)C1=O (centres unmarked) [Methylphenobarbital] |  |  |  |  |  | ORAL BIOAVAILABILITY ([1]; in vivo, po): 50%; PLASMA PROTEIN BINDING ([2]; plasma): 70-76% ^; HALF-LIFE ([4]; in vivo): 31 to 67 h
24 | [H]/N=C(/N)N/C(=N/[H])NCCc1ccccc1 [Phenformin] |  |  |  | 40-60% | 12-20% ^ | HALF-LIFE [4, 9]: 4 to 13 h
25 | COCCCOc1ccnc(C[S+]([O-])c2nc3ccccc3[nH]2)c1C (centres unmarked) [Rabeprazole] |  |  |  |  |  | ORAL BIOAVAILABILITY [1, 10]: 52%; METABOLISM ([3]; CYP isoforms listed, Table of Exemplary Drugs, CYP2C19): 3A; HALF-LIFE [4, 10]: 1 to 2 h
26 | COc1cccc(C2(O)CCCCC2CN(C)C)c1 (centres unmarked) [Tramadol] |  |  |  | 75% | 20% | HALF-LIFE ([4]; in vivo): 5.6 to 5.7 h
27 | CN1CCN(C2=Nc3cc(Cl)ccc3Nc3ccccc32)CC1 [Clozapine] |  |  |  |  |  | ORAL BIOAVAILABILITY [1, 8]: 12-81%; PLASMA PROTEIN BINDING [2, 8]: 97%; HALF-LIFE [4, 8]: 4 to 66 h
28 | CCCCCc1cc(O)c2c(c1)OC(C)(C)[C@@H]1CCC(C)=C[C@@H]21 [THC] |  |  |  |  |  | ORAL BIOAVAILABILITY [1, 11]: 10-35%; PLASMA PROTEIN BINDING [2, 11]: 97-99% ^; HALF-LIFE [4, 11]: 1.6 to 59 h
29 | COc1ccc(C(=O)Nc2ccccc2CCC2CCCCN2C)cc1 (centres unmarked) [Encainide] |  |  |  | 25-90% | 70.5-78% ^ | HALF-LIFE [4, 9]: 1.5 to 11.3 h
30 | COc1ccc([C@@H]2Sc3ccccc3N(CCN(C)C)C(=O)[C@@H]2OC(C)=O)cc1 [Diltiazem (Cardizem), Diltiazem] | >40% | 70-80% ^ | 3 to 6 |  |  | 
31 | OCCN1CCN(CC/C=C2/c3ccccc3Sc3ccc(Cl)cc32)CC1 [Zuclopenthixol] |  |  |  | 49% | 98% | HALF-LIFE [4, 9]: 20 h
32 | COc1cc(C(C)=O)ccc1OCCCN1CCC(c2noc3cc(F)ccc23)CC1 [Iloperidone] |  |  |  | 96% | 95% | HALF-LIFE [4, 9]: 18 to 33 h
33 | COc1cc(N)c(Cl)cc1C(=O)NC1CCN(CCCOc2ccc(F)cc2)CC1OC (centres unmarked) [Cisapride (Propulsid), Cisapride] | 35-65% | 98% | 6 to 12 |  |  | 
34 | CC(CN1c2ccccc2Sc2ccccc21)N(C)C (centres unmarked) [Promethazine] |  |  |  | 88% | 93% | HALF-LIFE [4, 9]: 16 to 19 h
35 | CN1[C@@H]2CC[C@H]1C[C@@H](OC(=O)c1c[nH]c3ccccc13)C2 [Tropisetron] |  |  |  | 60-100% | 71% | HALF-LIFE [4, 9]: 5.6 to 8.6 h
36 | OC(CNCC(O)C1CCc2cc(F)ccc2O1)C1CCc2cc(F)ccc2O1 (centres unmarked) [Nebivolol] |  |  |  | 12-96% | 98% | HALF-LIFE [4, 9]: 12 to 19 h
37 | CN1CC[C@@]23CCCC[C@@H]2[C@@H]1Cc1ccc(O)cc13 [Dextrorphan] |  |  |  |  |  | concentrations in saliva [6]: sometimes found in very low concentrations in saliva
38 | CCc1nn(CCCN2CCN(c3cccc(Cl)c3)CC2)c(=O)n1CCOc1ccccc1 [Nefazodone] | 20% | >99% | 2 to 4 |  |  | 
39 | Polyunsaturated FAs |  |  |  |  |  | ORAL BIOAVAILABILITY [1, 11]: 64-73%; PLASMA PROTEIN BINDING [2, 11]: >99%; HALF-LIFE [4, 11]: 2.7 to 5.5 h
